Test results reported in patent US20150216779A1, “COMPOSITIONS FOR TARGETED ANTI-AGING THERAPY” (THE TEXAS A&M UNIVERSITY SYSTEM, priority 2012, published 2015).
One block for each molecule: values may come before it.

Experiments:
[1] = CoQ10 storage stability in delivery system at 30° C., HPLC; type: physicochemical; conditions: 8 weeks at 30° C.; dispersed in matrix of heat-stabilized lactoferrin alone and in combination with branched-chain amino acids
Procedure: A delivery system containing the anti-aging agent CoQ10 is prepared as follows: A. Encapsulated-1 (CoQ10). Primary Emulsion. […] This mixture was coarsely homogenized for 3 min using a hand blender. Secondary Emulsion.
The primary and secondary emulsions were blended at 1:1 ratio. The final emulsion system contained 0.5% Menhaden oil/Smart Blend Omega oil, 0.1% heat-stabilized lactoferrin, 0.1% CoQ10 and 0.1% high-methoxyl pectin (w/w). The zinc ion concentration after dilution became 2.4 mg/100 ml. This delivery system for CoQ10 was homogenized (72° C., 22.5 MPa), followed by pasteurization (72° C., 120 s). B. Encapsulated-2 (CoQ10). Primary Emulsion. […] This mixture was coarsely homogenized for 3 min using a hand blender. Secondary Emulsion. […] The primary and secondary emulsions were blended at 1:1 ratio. The final emulsion system contained 0.5% Menhaden oil/Smart Blend Omega oil, 0.1% heat-stabilized lactoferrin, 0.2% branched-chain amino acids, 0.1% CoQ10, and 0.1% high-methoxyl pectin (w/w). The zinc ion concentration after dilution became 2.4 mg/100 ml. This delivery system for CoQ10 was homogenized (72° C., 22.5 MPa), followed by pasteurization (72° C., 120 s). C. Unencapsulated (CoQ10). […] This mixture was homogenized (72° C., 22.5 MPa), followed by pasteurization (72° C., 120 s). […]

[2] = Lutein photo-stability in delivery system at 21° C. under light 12 h daily, HPLC-PDA-MS/MS; type: physicochemical; conditions: UV and visible light 12 h daily at 21° C. over 8 weeks; dispersed in heat-stabilized lactoferrin matrix
Procedure: A. Encapsulated-1 (Lutein). Primary Emulsion. […] This mixture was coarsely homogenized for 3 min using a hand blender. Secondary Emulsion.
(§1) The primary and secondary emulsions were blended at 1:1 ratio. The final emulsion system contained 0.5% Menhaden oil/Smart Blend Omega oil, 0.1% heat-stabilized lactoferrin, 0.1% lutein, and 0.1% high-methoxyl pectin (w/w). The zinc ion concentration after dilution became 2.4 mg/100 ml. This delivery system for lutein was homogenized (72° C., 22.5 MPa), followed by pasteurization (72° C., 120 s).
B. Encapsulated-2 (Lutein). Primary Emulsion. […] This mixture was coarsely homogenized for 3 min using a hand blender. Secondary Emulsion.
as §1, with “lactoferrin, 0.2% branched-chain amino acids,” for “lactoferrin,”
C. Unencapsulated (Lutein). […] This mixture was homogenized (72° C., 22.5 MPa), followed by pasteurization (72° C., 120 s).
The samples (500 ml each) were aseptically dispensed into clean, clear 600-ml bottles made from polyethylene terephthalate (PET). […]

[3] = O/W emulsion, menhaden oil/Smart Blend Omega oil 1:1 (0.5% w/w), entrapped within β-lactoglobulin microcarriers; 28 days of storage at 30° C.

- degradation of CoQ10 during storage [1]: about 30%
Molecule: COC1=C(OC)C(=O)C(C/C=C(\C)CC/C=C(\C)CC/C=C(\C)CC/C=C(\C)CC/C=C(\C)CC/C=C(\C)CC/C=C(\C)CC/C=C(\C)CC/C=C(\C)CCC=C(C)C)=C(C)C1=O [CoQ10, coenzyme Q10]

- light-sensitive degradation of xanthophyll carotenoid pigments (lutein) [2]: about 70%
Molecule: CC1=C[C@H](O)CC(C)(C)[C@H]1/C=C/C(C)=C/C=C/C(C)=C/C=C/C=C(C)/C=C/C=C(C)/C=C/C1=C(C)C[C@@H](O)CC1(C)C [lutein]

- percentage of retained ω-3 fatty acid [3]: 79.5%
Molecule: docohexaenoic acid [DHA]
